Experimental data as given in patent US20130150317A1, “COMPOUNDS FOR THE TREATMENT OF RENAL CELL CARCINOMA” (Myrovlytis Technology Ventures Limited, priority 2010, published 2013).
Where a name gives a salt, the structure may show the parent alone. Read-outs that look alike come from different tables or passages of the source.

Key:
Type in all cases: cell-based, human
[1] = system: UOK257-FLCN^+ cells; test: SRB growth inhibition assay in UOK257-FLCN^+ cells; settings: 72 hours continuous exposure, mean ± SE (n), read-out: GI50 nM in UOK-FLCN^+
Source text: (§1) Human renal carcinoma of BHD origin cells UOK-257 (UOK-FLCN^−) and FLCN transfected UOK-257 cells UOK-FLCN^+ (Yang et al Cancer Genet Cytogenet. 2008 Jan. 15; 180(2):100-9) were provided by Dr Marston Linehan and Dr. Laura S Schmidt (Urologic Oncology Branch, Centre for Cancer Research, National Cancer Institute, National Institutes of Health, Bethesda, Md. 20892, USA). UOK-257 is the only RCC cell line that has been derived from a patient with BHD and harbours a germline FLCN frameshift mutation (c.1285dupC) (predicted, in the absence of nonsense mediated mRNA decay, to lead to premature protein truncation (p.His429ProfsX27) (Yang et al., Cancer Genet Cytogenet, 2008 Jan. 15; 180(2):100-9). We are not aware of any sporadic RCC cell lines with homozygous FLCN inactivation. FTC-133 cells were purchased from ECACC (Salisbury, United Kingdom). These cells are a non-RCC cell line derived from human thyroid carcinoma. 786-0 cells were available from the author's lab (Clifford et al., Hum Mol Genet. 2001 May 1; 10(10):1029-38). 786-O is a kidney cancer cell line that harbours an inactivating VHL gene mutation (c.311delG p.G104fs*55). All cell lines were cultured in DMEM with supplement of 10% foetal bovine serum except for FTC-133 cells which were incubated in medium with DMEM and Hens (1:1).
(§2) The sensitivity of the cell lines to drug-induced cell growth inhibition was determined using the sulphorhodamine B assay (SRB) as described by Lu et al., Clin Cancer Res. 2001:7:2114-23. Briefly, adherent exponentially growing cells were seeded into 96-well plates at 3-5×10^3 cells/100 μl/well. After 20-24 h at 37° C., drugs were added at the appropriate drug concentrations to the wells (final DMSO conc. 1%) as indicated in the Results section. […] The absorbance per well was measured at 570 nm on a Victor X3 Multilabel Plate Reader (PerkinElmor, Beaconsfield, United Kingdom).
UOK-257 is the only RCC cell line that has been derived from a patient with BHD and harbours a germline FLCN frameshift mutation (c.1285dupC) (predicted, in the absence of nonsense mediated mRNA decay, to lead to premature protein truncation (p.His429ProfsX27) (Yang et al Cancer Genet Cytogenet, 2008 Jan. 15; 180(2):100-9). Both UOK257-FLCN^− and UOK257-FLCN^+ cells were examined for their sensitivities to growth inhibition induced by 15 compounds selected from the COMPARE analysis. Various concentrations of compounds were introduced into the cells 24 hrs after seeding, incubation was continued for 72 hours and growth inhibition was assessed using the suiphorhodamine B (SRB) assay. GI50 values, defined as the concentration of compounds required to inhibit growth by 50%, were then calculated. The ratio of GI50 value from UOK257-FLCN^+ and UOK257-FLCN^− were calculated and used as an indicator for the sensitivity to FLCN mutant cells.

[2] = system: UOK257-FLCN^− cells; test: SRB growth inhibition assay in UOK257-FLCN^− cells; settings: for GI50: SRB assay, 72 hours continuous exposure, mean ± SE (n), read-out: GI50 nM in UOK-FLCN^−; for GI50 Ratio of UOK-FLCN^+/UOK-FLCN^−: ratio>1 = more inhibitory to FLCN^− cells; for fold difference in the GI50 values between FLCN-null and FLCN-wild type UOK257 cells: GI50 higher in FLCN-wild type cells (FLCN-null more sensitive)
Source text: as §1
(§3) The sensitivity of the cell lines to drug-induced cell growth inhibition was determined using the sulphorhodamine B assay (SRB) as described by Lu et al., Clin Cancer Res. 2001:7:2114-23. Briefly, adherent exponentially growing cells were seeded into 96-well plates at 3-5×10^3 cells/100 μl/well. […] The absorbance per well was measured at 570 nm on a Victor X3 Multilabel Plate Reader (PerkinElmor, Beaconsfield, United Kingdom).
GI50 values, defined as the concentration of compounds required to inhibit growth by 50%, were then calculated. The ratio of GI50 value from UOK257-FLCN^+ and UOK257-FLCN^− were calculated and used as an indicator for the sensitivity to FLCN mutant cells.

[3] = system: caspase3/7 activity in UOK257-FLCN^− and UOK257-FLCN^+ cells; test: Caspase-Glo 3/7 assay in UOK-257 cells with/without FLCN expression; settings: 48 hrs, all three concentrations
Protocol: The ability to induce caspase 3/7 activation after exposure to compounds was measured by Caspase-Glo 3/7 Assay (Promega, Southampton, United Kingdom) according to manufacturer's instruction. The cells were seeded and dosed as described in growth inhibition assay. At the end of incubation, 70 μl of medium was removed and 30 μl of assay reagent was added to the remaining medium. Additional one hour incubation with shaking was carried out at room temperature. The resultant luminescent light was measured in a Victor X3 Multilabel Plate Reader (PerkinElmer, Beaconsfield, United Kingdom). Cell viability after compound exposure was determined by CellTiter-Blue Cell Viability Assay (Promega, Southampton, the United Kingdom) according to manufacturer's instruction. At the end of drug treatment, 20 μl of reagent was added to the medium in 96 wells and the cells were incubated for additional 4 hours. The cell viability was measured by fluorescence with a 570 nm excitation and 590 nm emission set in a Victor X3 Multilabel Plate Reader (PerkinElmer, Beaconsfield, United Kingdom).
After 48 hrs incubation, with three concentration ranges for each drug, the capase3/7 activity was detected by amount of luminescence for each cell line. The ratio of caspase3/7 activity from UOK257-FLCN^− and UOK257-FLCN^+ were calculated and used as indicators for the ability of the individual compound to induce caspase3/7 activity to FLCN mutant cells.
These ratios were calculated and used as indicators for the sensitivity to mutant FLCN cells.

[4] = system: 786-O cells with mutant VHL; test: SRB growth inhibition in 786-O cells with mutant VHL; settings: SRB assay, 72 hours
Source text: as §1, §2
Cells were exposed continuously to various concentrations of drugs for 72 hours. GI50 values were determined as the concentrations at 50% growth inhibition from at least three experiments.

[5] = system: FTC-133 cells transfected with empty vector; test: SRB growth inhibition in FTC-133 cells, empty vector; settings: SRB assay
Source text: as §1, §3
(§4) A FLCN containing construct was introduced into parental FTC-133 cells and stably transfected cells were selected. SRB growth inhibition assay was carried out in cells transfected with empty vector and low FLCN and high FLCN expression.
as §4

Compound | GI50 ([1]; Homo sapiens) [nM] | GI50 ([2]; Homo sapiens) [nM] | GI50 Ratio of UOK-FLCN^+/UOK-FLCN^− [2] | GI50 [1] [nM] | GI50 [2] [nM] | other results
COc1cc([C@@H]2c3cc4c(cc3[C@@H](O[C@@H]3O[C@@H]5CO[C@@H](c6cccs6)O[C@H]5[C@H](O)[C@H]3O)[C@H]3COC(=O)[C@H]23)OCO4)cc(OC)c1O [VM-26 (teniposide), teniposide] | 849 ± 358 | 773 ± 162 | 1.10 | – | – | –
CS[C@H]1SC[C@H]2C(=O)N(C)[C@@H](C(C)C)C(=O)OC[C@@H](NC(=O)c3cnc4ccccc4n3)C(=O)N[C@@H](C)C(=O)N(C)[C@@H]1C(=O)N(C)[C@@H](C(C)C)C(=O)OC[C@@H](NC(=O)c1cnc3ccccc3n1)C(=O)N[C@@H](C)C(=O)N2C [echinomycin] | 4.03 ± 0.89 | 5.72 ± 0.22 | 0.71 | – | – | –
CC[C@H](C)[C@H]1NC(=O)[C@@H](NC(=O)[C@@H](CC(C)C)N(C)C(=O)[C@@H]2CCCN2C(=O)C(C)O)[C@@H](C)OC(=O)[C@H](Cc2ccc(OC)cc2)N(C)C(=O)[C@@H]2CCCN2C(=O)[C@H](CC(C)C)NC(=O)[C@@H](C)C(=O)[C@H](C(C)C)OC(=O)C[C@@H]1O (stereo partly shown) [didemnin B] | – | – | 0.82 | 6.53 ± 1.78 | 7.94 ± 1.66 | –
COc1cccc2c1C(=O)c1c(O)c3c(c(O)c1C2=O)C[C@@](O)(C(=O)CO)C[C@@H]3O[C@H]1C[C@H](N)[C@H](O)[C@H](C)O1 [doxorubicin (adriamycin), doxorubicin] | 581 ± 109 | 423 ± 54 | 1.37 | – | – | –
bruceantin | – | – | 0.64 | 43.6 ± 5.1 | 68.4 ± 14.9 | ratio of caspase3/7 activity from UOK257-FLCN^− and UOK257-FLCN^+ [3]: < 1
COc1cccc2c1C(=O)c1c(O)c3c(c(O)c1C2=O)C[C@@](O)(C(=O)CO)C[C@@H]3O[C@H]1C[C@H](N2CCOCC2C#N)[C@H](O)[C@H](C)O1 (stereo partly shown) [cyanomorpholino-ADR] | – | – | 0.16 | 0.62 ± 0.16 | 3.79 ± 0.39 | fold difference in the GI50 values between UOK257-FLCN^+ and UOK257-FLCN^− cells ([2]; GI50 higher in FLCN^− cells (FLCN^− less sensitive)): 6 fold
C(=N\NC1=NCCN1)/c1c2ccccc2c(/C=N/NC2=NCCN2)c2ccccc12 [bisantrene hydrochloride] | 1340 ± 602 | 1750 ± 288 | 0.77 | – | – | –
COc1cccc2c1C(=O)c1c(O)c3c(c(O)c1C2=O)C[C@@](O)(C(C)=O)C[C@@H]3O[C@H]1C[C@H](N(Cc2ccccc2)Cc2ccccc2)[C@@H](O)[C@H](C)O1 [N,N-dibenzyldaunomycin] | – | – | 0.22 | 1270 ± 549 | 5740 ± 918 | –
COc1cccc2c1C(=O)c1c(O)c3c(c(O)c1C2=O)C[C@@](O)(C(=O)CO)C[C@@H]3O[C@H]1C[C@H](N2CCOCC2)[C@H](O)[C@H](C)O1 [morpholino-ADR, Morpholino-ADR] | – | – | 0.97 | 0.44 ± 0.1 | 0.45 ± 0.03 | –
CC(=O)O[C@H]1C(=O)[C@@]2(C)[C@H]([C@H](OC(=O)c3ccccc3)[C@]3(O)C[C@H](OC(=O)[C@H](O)[C@@H](NC(=O)c4ccccc4)c4ccccc4)C(C)=C1C3(C)C)[C@]1(OC(C)=O)CO[C@@H]1C[C@@H]2O [paclitaxel (taxol), paclitaxel] | 514 ± 86 | 75.5 ± 9.2 | 6.81 | – | – | fold difference in the GI50 values between FLCN-null and FLCN-wild type UOK257 cells [2]: ~7 fold
CO[C@@H]1C[C@](C)(O)Cc2cc3c(c(O)c21)C(=O)c1c(O)cc2c(c1C3=O)O[C@@H]1O[C@@]2(C)[C@H](O)[C@@H](N(C)C)[C@@H]1O [menogaril] | 757 ± 117 | 588 ± 57 | 1.29 | – | – | –
CC(=O)O[C@@H]1[C@@H](O)[C@H](O[C@H]2[C@H](OC(=O)[C@H]3CC[C@@H]4[C@H](C3)O[C@@]3(C[C@H](OC(=O)/C=C/c5ccccc5)[C@H](C)CO3)[C@]43CO3)O[C@H](C)[C@@H](O)[C@@H]2OC(C)=O)O[C@H](C)[C@H]1O [phyllanthoside] | – | 199 ± 79 | 2.15 | – | – | GI50 ([1]; Homo sapiens, 72 h): 427 ± 97 nM; fold difference in the GI50 values between FLCN-null and FLCN-wild type UOK257 cells [2]: ~2 fold
CC[C@]1(O)C[C@H]2CN(CCc3c([nH]c4ccccc34)[C@@](C(=O)OC)(c3cc4c(cc3OC)N(C=O)[C@H]3[C@@](O)(C(=O)OC)[C@H](OC(C)=O)[C@]5(CC)C=CCN6CC[C@]43[C@@H]65)C2)C1 [vincristine sulphate, vincristine sulfate] | 56.4 ± 17.5 | 30.1 ± 10.3 | 1.88 | – | – | change in growth inhibition for 786-0 cells with/without VHL expression (in words) [4]: no significant change; differential sensitivity in FTC-133 cells with different levels of FLCN expression (in words) [5]: no selective vincristine sensitivity; fold difference in the GI50 values between FLCN-null and FLCN-wild type UOK257 cells [2]: ~2 fold
